Measurements published in patent US10485815B2, “Substituted nucleosides, nucleotides and analogs thereof” (Alios BioPharma, Inc., priority 2012, dated 2019).
Read-outs that look alike come from different tables or passages of the source.

What was measured:
[1] = test system: Influenza strain A/WSN/33 (H1N1); test: microbe, parasite or virus in culture; type: cell-based; conditions: A549, 20 h, read-out: % Inhibition
RSV A2 (ATCC: VR-1540) = test: RSV RT-PCR based assay in HEp-2 cells; type: cell-based; conditions: human respiratory syncytial virus
RSV polymerase = RSV polymerase (Human respiratory syncytial virus A, UniProt P28887); test: biochemical
hPIV3-eGFP = test: microbe, parasite or virus in culture; type: cell-based, human parainfluenza virus 3; conditions: Human respirovirus 3, A549, 72 h
[2] = test system: human parainfluenza virus 3 (hPIV3, ATCC: VR-93); test: Parainfluenza virus-3 (PIV-3) RT-PCR assay in A549 cells; type: cell-based; conditions: Human respirovirus 3, 168 h, hPIV3 MOI 0.1, 7 days after infection
[3] = 96 h, RT-PCR assay, HEp-2 cells, RSV A2 MOI 0.1, 4 days after infection, read-out: EC50

Sequence of RSV polymerase (P28887 whole entry, looked up): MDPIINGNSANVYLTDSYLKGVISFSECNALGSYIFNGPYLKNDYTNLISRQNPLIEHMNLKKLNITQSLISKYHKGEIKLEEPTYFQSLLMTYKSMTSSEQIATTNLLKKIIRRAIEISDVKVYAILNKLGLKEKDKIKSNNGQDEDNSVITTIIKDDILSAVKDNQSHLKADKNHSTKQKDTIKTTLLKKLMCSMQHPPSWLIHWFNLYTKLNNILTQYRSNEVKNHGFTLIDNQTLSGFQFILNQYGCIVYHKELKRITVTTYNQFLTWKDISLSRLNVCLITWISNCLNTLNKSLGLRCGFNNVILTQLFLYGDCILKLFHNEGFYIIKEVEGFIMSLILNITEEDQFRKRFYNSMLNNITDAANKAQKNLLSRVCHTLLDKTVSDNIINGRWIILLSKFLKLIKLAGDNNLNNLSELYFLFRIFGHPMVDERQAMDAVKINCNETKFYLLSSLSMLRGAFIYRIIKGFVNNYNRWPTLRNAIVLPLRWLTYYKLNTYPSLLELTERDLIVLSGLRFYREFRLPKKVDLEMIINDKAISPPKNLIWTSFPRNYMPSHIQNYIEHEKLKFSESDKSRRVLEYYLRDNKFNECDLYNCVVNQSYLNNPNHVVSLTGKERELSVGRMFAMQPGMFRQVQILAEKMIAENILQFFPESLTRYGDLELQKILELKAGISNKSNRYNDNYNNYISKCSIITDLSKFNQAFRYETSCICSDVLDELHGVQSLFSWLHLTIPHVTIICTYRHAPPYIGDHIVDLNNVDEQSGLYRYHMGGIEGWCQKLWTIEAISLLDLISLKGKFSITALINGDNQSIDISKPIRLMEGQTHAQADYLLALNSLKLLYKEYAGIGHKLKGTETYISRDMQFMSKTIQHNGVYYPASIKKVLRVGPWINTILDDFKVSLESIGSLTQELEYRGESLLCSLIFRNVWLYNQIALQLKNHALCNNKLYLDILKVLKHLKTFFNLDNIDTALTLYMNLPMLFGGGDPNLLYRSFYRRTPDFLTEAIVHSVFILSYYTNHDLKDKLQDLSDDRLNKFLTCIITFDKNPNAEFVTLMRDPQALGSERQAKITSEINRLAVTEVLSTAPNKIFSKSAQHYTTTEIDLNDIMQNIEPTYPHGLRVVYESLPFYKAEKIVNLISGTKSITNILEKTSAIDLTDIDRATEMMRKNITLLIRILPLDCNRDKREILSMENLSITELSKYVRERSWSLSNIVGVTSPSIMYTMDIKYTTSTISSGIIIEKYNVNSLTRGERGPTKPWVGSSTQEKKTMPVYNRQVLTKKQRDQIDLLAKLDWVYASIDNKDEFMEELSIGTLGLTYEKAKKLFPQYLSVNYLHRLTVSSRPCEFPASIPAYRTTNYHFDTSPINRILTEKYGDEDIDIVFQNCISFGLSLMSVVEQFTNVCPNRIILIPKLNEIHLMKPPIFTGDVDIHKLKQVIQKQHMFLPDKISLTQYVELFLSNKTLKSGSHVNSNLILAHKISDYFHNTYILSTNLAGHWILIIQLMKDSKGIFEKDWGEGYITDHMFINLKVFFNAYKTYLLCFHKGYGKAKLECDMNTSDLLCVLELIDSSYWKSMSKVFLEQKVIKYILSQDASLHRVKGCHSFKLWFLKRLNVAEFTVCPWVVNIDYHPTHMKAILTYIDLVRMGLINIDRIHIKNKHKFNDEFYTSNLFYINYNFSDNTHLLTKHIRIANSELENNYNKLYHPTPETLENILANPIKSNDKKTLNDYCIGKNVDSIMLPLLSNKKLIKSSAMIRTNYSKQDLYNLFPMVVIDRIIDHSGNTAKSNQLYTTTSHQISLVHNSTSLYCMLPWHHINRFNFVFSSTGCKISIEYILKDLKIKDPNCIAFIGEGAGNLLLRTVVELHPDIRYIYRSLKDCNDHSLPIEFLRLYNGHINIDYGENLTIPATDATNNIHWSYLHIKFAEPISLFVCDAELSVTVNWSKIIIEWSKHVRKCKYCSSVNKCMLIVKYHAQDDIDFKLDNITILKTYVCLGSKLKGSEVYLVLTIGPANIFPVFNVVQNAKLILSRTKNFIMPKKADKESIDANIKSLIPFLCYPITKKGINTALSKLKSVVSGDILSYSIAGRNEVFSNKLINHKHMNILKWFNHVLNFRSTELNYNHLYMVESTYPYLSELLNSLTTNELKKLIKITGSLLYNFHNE

| SMILES | EC50 [1] | EC50 (RSV A2 (ATCC: VR-1540); [3]) | further results |
| --- | --- | --- | --- |
| C#C[C@]1(COP(=O)(N[C@@H](C)C(=O)OC(C)C)Oc2ccccc2)O[C@@H](n2ccc(=O)[nH]c2=O)[C@H](F)[C@@H]1O (stereo partly drawn) [Compound 18a] | 100 to 250 µM | – | – |
| C#C[C@]1(CO)O[C@@H](n2cnc3c(=O)[nH]c(N)nc32)[C@H](F)[C@@H]1O [Compound 27a] | 20 to 100 µM | 1 to 10 µM | – |
| Nc1ncnc2c1ncn2[C@@H]1O[C@](CF)(COP(=O)(O)OP(=O)(O)OP(=O)(O)O)[C@@H](O)[C@H]1F [Compound 98c] | – | – | EC50 (RSV polymerase): < 2 µM |
| CC(C)(C)C(=O)OCOP(=O)(OCOC(=O)C(C)(C)C)OC[C@@]1(CCl)O[C@@H](n2ccc(=O)[nH]c2=O)[C@H](F)[C@@H]1O [Compound 45a] | – | 10 to 100 µM | – |
| Nc1ccn([C@@H]2O[C@@]3(CO)CO[C@H]3[C@H]2F)c(=O)n1 [Compound 12a] | 100 to 250 µM | – | – |
| CC[C@]1(COP(=O)(OCCSC(=O)C(C)(C)C)OCCSC(=O)C(C)(C)C)O[C@@H](n2ccc(N)nc2=O)[C@H](F)[C@@H]1O [Compound 33a] | – | < 1 µM | – |
| C=C[C@]1(CO)O[C@@H](n2ccc(N)nc2=O)[C@H](F)[C@@H]1O [Compound 4a] | 100 to 250 µM | 10 to 100 µM | EC50 (hPIV3-eGFP): > 100 µM |
| Nc1ccn([C@@H]2O[C@](CF)(COP(=O)(O)OP(=O)(O)OP(=O)(O)O)[C@@H](O)[C@H]2F)c(=O)n1 [Compound 56c] | – | – | EC50 (RSV polymerase): < 2 µM |
| CCC[C@]1(CO)O[C@@H](n2ccc(N)nc2=O)[C@H](F)[C@@H]1O [Compound 21a] | 100 to 250 µM | < 1 µM | – |
| CO[C@]1(CO)O[C@@H](n2cnc3c(=O)[nH]c(N)nc32)[C@H](F)[C@@H]1O [Compound 28a] | 100 to 250 µM | 1 to 10 µM | – |
| Nc1ccn([C@@H]2OC(CO)(CO)[C@@H](O)[C@H]2F)c(=O)n1 [Compound 6a] | 100 to 250 µM | – | EC50 (hPIV3-eGFP): > 100 µM; EC50 [2]: > 100 µM |
| CC(F)[C@]1(COP(=O)(O)OP(=O)(O)OP(=O)(O)O)O[C@@H](n2ccc(N)nc2=O)[C@H](F)[C@@H]1O (stereo partly drawn) [Compound 56e] | – | – | EC50 (RSV polymerase): < 2 µM |
| CC[C@]1(COP(=O)(OCOC(=O)C(C)(C)C)OCOC(=O)C(C)(C)C)O[C@@H](n2ccc(N)nc2=O)[C@H](F)[C@@H]1O [Compound 31a] | 100 to 250 µM | 1 to 10 µM | – |
| C=C[C@]1(CO)O[C@@H](n2cnc3c(=O)[nH]c(N)nc32)[C@H](F)[C@@H]1O [Compound 25a, 2′-Deoxy-2′-fluoro-4′-C-(ethenyl)guanosine] | < 20 µM | 10 to 100 µM | – |
| N#C[C@]1(CO)O[C@@H](n2cnc3c(=O)[nH]c(N)nc32)[C@H](F)[C@@H]1O [Compound 26a] | 100 to 250 µM | 1 to 10 µM | – |
| [N-]=[N+]=N[C@]1(CO)O[C@@H](n2ccc(N)nc2=O)[C@@H](O)[C@@H]1O [Compound 113a] | – | – | EC50 (hPIV3-eGFP): > 100 µM; EC50 [2]: > 100 µM |
| CC[C@]1(COP(=O)(O)OP(=O)(O)OP(=O)(O)O)O[C@@H](n2ccc(N)nc2=O)[C@H](F)[C@@H]1O [Compound 36a] | – | – | EC50 (RSV polymerase): < 2 µM |
| CC(C)OC(=O)OCOP(=O)(OCOC(=O)OC(C)C)OC[C@@]1(C2CC2)O[C@@H](n2ccc(N)nc2=O)[C@H](F)[C@@H]1O [Compound 105a] | – | 10 to 100 µM | – |
| Nc1ccn([C@@H]2O[C@@](CO)(CBr)[C@@H](O)[C@H]2F)c(=O)n1 [Compound 71a] | – | < 1 µM | EC50 (hPIV3-eGFP): > 100 µM; EC50 [2]: > 100 µM |
| COC[C@]1(COP(=O)(O)OP(=O)(O)OP(=O)(O)O)O[C@@H](n2ccc(N)nc2=O)[C@@H](F)[C@H]1O [Compound 97a] | – | – | EC50 (RSV polymerase): < 2 µM |
| COC[C@]1(COP(=O)(OCOC(=O)OC(C)C)OCOC(=O)OC(C)C)O[C@@H](n2ccc(N)nc2=O)[C@H](F)[C@@H]1O [Compound 106a] | – | 10 to 100 µM | – |
| COC[C@]1(CO)O[C@@H](n2ccc(N)nc2=O)[C@H](F)[C@@H]1O [Compound 43a] | – | – | EC50 (hPIV3-eGFP): > 100 µM; EC50 [2]: > 100 µM |
| CO[C@]1(CO)O[C@@H](n2ccc(N)nc2=O)[C@H](F)[C@@H]1O [Compound 22a] | 100 to 250 µM | 10 to 100 µM | EC50 (hPIV3-eGFP): > 100 µM; EC50 [2]: > 100 µM |
| CSC[C@]1(COP(=O)(O)OP(=O)(O)OP(=O)(O)O)O[C@@H](n2ccc(N)nc2=O)[C@@H](F)[C@H]1O [Compound 97b] | – | – | EC50 (RSV polymerase): < 2 µM |
| CC(C)(C)C(=O)OCOP(=O)(OCOC(=O)C(C)(C)C)OC[C@@]1(CCl)O[C@@H](n2ccc(N)nc2=O)[C@H](F)[C@@H]1O [Compound 30a] | 100 to 250 µM | < 1 µM | – |
| C=C[C@]1(COP(=O)(N[C@@H](C)C(=O)OC(C)C)Oc2ccccc2)O[C@@H](n2ccc(=O)[nH]c2=O)[C@H](F)[C@@H]1O (stereo partly drawn) [Compound 17a] | 100 to 250 µM | – | – |

| SMILES | EC50 [1] | EC50 (RSV A2 (ATCC: VR-1540); [3]) | further results |
| --- | --- | --- | --- |
| CC[C@]1(CO)O[C@@H](n2cnc3c(=O)[nH]c(N)nc32)[C@H](F)[C@@H]1O [Compound 39a] | 20 to 100 µM | 1 to 10 µM | – |
| C#C[C@]1(CO)O[C@@H](n2ccc(N)nc2=O)[C@H](F)[C@@H]1O [Compound 1a] | 100 to 250 µM | – | EC50 (RSV A2 (ATCC: VR-1540); HEp-2, 96 h): 10 to 100 µM |
| Nc1nc(=O)n([C@@H]2O[C@](CCl)(COP(=O)(O)OP(=O)(O)OP(=O)(O)O)[C@H](O)[C@@H]2F)cc1F [Compound 97g] | – | – | EC50 (RSV polymerase): < 2 µM |
| O=c1nc(NO)ccn1[C@@H]1O[C@@](CO)(CCl)[C@@H](O)[C@H]1F [Compound 73a] | – | 10 to 100 µM | – |
| CCCCC(=O)OC[C@@]1(CCl)O[C@@H](n2ccc(N)nc2=O)[C@H](F)[C@@H]1OC(=O)CCCC [Compound 48a] | – | 1 to 10 µM | – |
| CC[C@]1(COC(=O)C(C)C)O[C@@H](n2ccc(N)nc2=O)[C@H](F)[C@@H]1OC(=O)C(C)C [Compound 108a] | – | 1 to 10 µM | – |
| Nc1nc2c(ncn2[C@@H]2O[C@@](CO)(CCl)[C@@H](O)[C@H]2F)c(=O)[nH]1 [Compound 81a] | – | 1 to 10 µM | – |
| Nc1ncnc2c1ncn2[C@@H]1O[C@](CCl)(COP(=O)(O)OP(=O)(O)OP(=O)(O)O)[C@@H](O)[C@H]1F [Compound 98b] | – | – | EC50 (RSV polymerase): < 2 µM |
| Nc1ccn([C@@H]2O[C@](CBr)(COP(=O)(O)OP(=O)(O)OP(=O)(O)O)[C@H](O)[C@@H]2F)c(=O)n1 [Compound 97c] | – | – | EC50 (RSV polymerase): < 2 µM |
| Nc1ccn([C@@H]2O[C@@](CO)(CF)[C@@H](O)[C@H]2F)c(=O)n1 [Compound 23a] | 100 to 250 µM | < 1 µM | EC50 (hPIV3-eGFP): > 100 µM; EC50 [2]: > 100 µM |
| C#C[C@]1(COP(=O)(O)OP(=O)(O)OP(=O)(O)O)O[C@@H](n2ccc(N)nc2=O)[C@H](F)[C@@H]1O [Compound 36c] | – | – | EC50 (RSV polymerase): < 2 µM |
| C=C=C[C@]1(CO)O[C@@H](n2ccc(N)nc2=O)[C@H](F)[C@@H]1O [Compound 11a] | – | 1 to 10 µM | – |
| C=C(C)[C@]1(COP(=O)(O)OP(=O)(O)OP(=O)(O)O)O[C@@H](n2ccc(N)nc2=O)[C@H](F)[C@@H]1O [Compound 36j] | – | – | EC50 (RSV polymerase): 2 to 10 µM |
| Nc1ccn([C@@H]2O[C@@](COP(=O)(O)OP(=O)(O)OP(=O)(O)O)(C3CC3)[C@@H](O)[C@H]2F)c(=O)n1 [Compound 56d] | – | – | EC50 (RSV polymerase): < 2 µM |
| CC(F)[C@]1(CO)O[C@@H](n2ccc(N)nc2=O)[C@H](F)[C@@H]1O (stereo partly drawn) [Compound 40a] | – | – | EC50 (hPIV3-eGFP): > 100 µM; EC50 [2]: > 100 µM |
| C[C@]1(CO)O[C@@H](n2cnc3c(=O)[nH]c(N)nc32)[C@H](F)[C@@H]1O [Compound 82a] | – | < 1 µM | – |
| O=c1ccn([C@@H]2O[C@](CCl)(COP(=O)(O)OP(=O)(O)OP(=O)(O)O)[C@@H](O)[C@H]2F)c(=O)[nH]1 [Compound 56a] | – | – | EC50 (RSV polymerase): 2 to 10 µM |
| Nc1nc(=O)n([C@@H]2O[C@@](CO)(CCl)[C@@H](O)[C@H]2F)cc1F [Compound 76a] | – | < 1 µM | – |
| CC(C)CC[C@]1(COP(=O)(O)OP(=O)(O)OP(=O)(O)O)O[C@@H](n2ccc(N)nc2=O)[C@H](F)[C@@H]1O [Compound 36i] | – | – | EC50 (RSV polymerase): 2 to 10 µM |
| CC(C)C(=O)OC[C@@]1(CCl)O[C@@H](n2ccc(N)nc2=O)[C@H](F)[C@@H]1OC(=O)C(C)C [Compound 46a] | – | 1 to 10 µM | – |
| CC[C@]1(COP2(=O)OCc3cccc(C)c3O2)O[C@@H](n2ccc(N)nc2=O)[C@H](F)[C@@H]1O (stereo partly drawn) [Compound 14a] | – | – | EC50 (RSV A2 (ATCC: VR-1540); HEp-2, 96 h): < 1 µM |
| Nc1ccn([C@@H]2O[C@@](CO)(C3CC3)[C@@H](O)[C@H]2F)c(=O)n1 [Compound 41a] | – | 1 to 10 µM | – |
| CC(F)[C@]1(COP(=O)(O)OP(=O)(O)OP(=O)(O)O)O[C@@H](n2ccc(N)nc2=O)[C@@H](F)[C@H]1O (stereo partly drawn) [Compound 36e] | – | – | EC50 (RSV polymerase): < 2 µM |
| C=C[C@]1(COP(=O)(N[C@@H](C)C(=O)OC(C)C)Oc2ccccc2)O[C@@H](n2ccc(N)nc2=O)[C@H](F)[C@@H]1O (stereo partly drawn) [Compound 16a] | 100 to 250 µM | – | – |
| CSC[C@]1(CO)O[C@@H](n2ccc(N)nc2=O)[C@H](F)[C@@H]1O [Compound 69a] | – | < 1 µM | EC50 (hPIV3-eGFP): 20 to 100 µM; EC50 [2]: < 20 µM |
| C[C@]1(CO)O[C@@H](n2ccc(N)nc2=O)[C@H](F)[C@@H]1O [Compound 9a] | 100 to 250 µM | 10 to 100 µM | EC50 (hPIV3-eGFP): > 100 µM; EC50 [2]: > 100 µM |
